In patent US20130266526A1, “DIHYDROXYFUMARIC ACID DERIVATIVES AND THE USE THEREOF FOR SKIN LIGHTENING” (MERCK PATENT GMBH, priority 2010, published 2013):
“Also recorded” adds a separate entry of the source.

Assays:
[1] = tested on: B16V mouse melanoma cells; assay: B16 V mouse melanoma cell test (melanin content after alpha-MSH stimulation); format: cell-based; details: for Relative melanin content in %: DMSO control = 100, alpha-MSH 10^-8 M, absorption 405 nm
Experimental: B16V mouse melanoma cells (manufacturer: DSMZ; Article No.: ACC370) are transferred into RPMI medium (Invitrogen, Article No.: 31870), to which 10% of FBS (foetal bovine serum; Invitrogen, Article No.: 10499044), 2 mM L-glutamine (Invitrogen, Article No: 25030) and 1 mM sodium pyruvate (Invitrogen, Article No.: 11360) had additionally been added, and incubated at 37° C. and 5% CO2 for 72 h. The medium is separated off, and the cells are washed once with 10 ml of DPBS (Dulbecco's phosphate-buffered salines; Invitrogen, Article No.: 14190), and the medium is subsequently removed by suction. 1 ml of HyQtase cell detachment solution (Hyclone, Article No.: SV30030.01) is added to the cells. The bottle is swirled a number of times, and the HyQtase cell detachment solution is subsequently removed by suction. The cells are then incubated in the incubator at 37° C. and 5% CO2 for 5 min. The cells are taken up in the modified RPMI medium (see above), and the cell count is determined. To this end, the cells are stained with Trypan Blue and counted in a Neubauer counting chamber. The cells are subsequently sown out again in the modified RPMI medium (see above) in a defined cell count of 80,000 cells per well (6-well clear plate, TCT, PS (Nunc)).
The cells are incubated at 37° C. and 5% CO2 for 24 h, the medium is then removed. 1980 μl of the dilution of the respective substance to be tested are subsequently added. For this substance dilution, the substance is dissolved in DMSO and subsequently filtered through a sterile filter (0.2 μm, Millipore, Article No. SLLG013SL). The solution is then diluted with the modified RPMI medium (see above, but in this case the FBS content is only 5%) in such a way that the final concentration of the substance dilution has the desired final concentration as shown in Table 1.
20 μl of an alpha-MSH solution (alpha-melanocyte-stimulating hormone, DMSO, Sigma, Article No.: D2650) are then added, so that the alpha-MSH concentration in the well is 10^−8 M. The plate is subsequently incubated again at 37° C. and 5% CO2 for 24 h. The process described in this section is repeated a further twice in total.
After the final incubation period, the medium is removed by suction, and the cells are washed with 1000 μl of DPBS (Invitrogen, Article No.: 14190). The medium is again removed by suction. […] of HyQtase cell detachment solution (Hyclone, Article No.: SV30030.01) are added to the cells. The 6-well plate is swirled a number of times, and the HyQtase cell detachment solution is subsequently removed by suction. The cells are then incubated in the incubator at 37° C. and 5% CO2 for 5 min. The cells are taken up in 1.5 ml of DPBS (Invitrogen, Article No.: 14190) and transferred into a cup (SARSTEDT, Ref. 72.692.005). The cell count is subsequently determined. To this end, the cells are stained with Trypan Blue and counted in a Neubauer counting chamber. The cells centrifuged for 1 min at 3500 g. The pellets obtained are photographed, and the supernatant is subsequently removed by suction. The pellets are dissolved in 1 ml of 1N NaOH at 80° C. for 1 h and then cooled to RT. Four times 200 μl per cup (as quadruple determination) are subsequently pipetted into a 96-well plate (VWR, Article No.: 4100636981), and the absorption at a wavelength of 405 nm is determined (Safire, Tecan). The content of melanin can be determined in this way by means of a calibration line.

[2] = tested on: melanin; details: substance alone; Example 5 of WO 01/66105 A1; cited from earlier work

**Q.** Which “Relative melanin content in %” value ([1]; 1 mM) does the source give for `O=c1cc(CO)occ1O` [Kojic acid] here?
**A.** Its value is 59%.

**Q.** Which “Relative melanin content in %” value ([1]; 3 mM) does the source give for `O=C1O[C@H]([C@@H](O)CO)C(O)=C1O` [Ascorbic acid] here?
**A.** The value was 77.4%.

**Q.** With `O=C(O)CO` [Glycolic acid] as the molecule, how does the “Relative melanin content in %” value ([1]; 0.5 mM) read?
**A.** Its value is 67.3%.

**Q.** With `O.O.O=C(O)/C(O)=C(\O)C(=O)O` [Dihydroxyfumaric acid dihydrate] as the molecule, how does the “Relative melanin content in %” value ([1]; 0.5 mM) read?
**A.** Its value is 13.4%.

**Q.** And the “skin-lightening action in comparison with known active compounds” value ([1]; comparison of the working example (Table 1), dihydrate)?
**A.** Its value is “exceeds the action of lactic acid, glycolic acid and even kojic acid by a multiple; also recorded: higher compared with the hydroxy acids lactic acid and glycolic acid”.

**Q.** What does the source list for `CC(O)C(=O)O` (stereo not shown) [Lactic acid]?
**A.** melanin-reducing action [2]: 40%; Relative melanin content in % ([1]; 11.1 mM): 57.8%
